Data taken from patent publication US11168073B2, “3,3-difluoroallylamines or salts thereof and pharmaceutical compositions comprising the same” (YUHAN CORPORATION, priority 2018, dated 2021).
Counter-ions that a name gives are not always drawn.

Key:
Assay type in all cases: biochemical
recombinant human VAP-1 = biological target: T1, recombinant human VAP-1 (Homo sapiens, UniProt Q16853); experiment: Activity evaluation on recombinant human VAP-1 (Amplex Red/HRP-coupled hydrogen peroxide assay, benzylamine substrate); conditions: recombinant human VAP-1; 30 min preincubation at 37° C.; 1 mM benzylamine; read-out: Inhibitory Activity (IC50, nM) human VAP-1
T1 construct: purchased R&D systems
T1 sequence (Q16853 1-763): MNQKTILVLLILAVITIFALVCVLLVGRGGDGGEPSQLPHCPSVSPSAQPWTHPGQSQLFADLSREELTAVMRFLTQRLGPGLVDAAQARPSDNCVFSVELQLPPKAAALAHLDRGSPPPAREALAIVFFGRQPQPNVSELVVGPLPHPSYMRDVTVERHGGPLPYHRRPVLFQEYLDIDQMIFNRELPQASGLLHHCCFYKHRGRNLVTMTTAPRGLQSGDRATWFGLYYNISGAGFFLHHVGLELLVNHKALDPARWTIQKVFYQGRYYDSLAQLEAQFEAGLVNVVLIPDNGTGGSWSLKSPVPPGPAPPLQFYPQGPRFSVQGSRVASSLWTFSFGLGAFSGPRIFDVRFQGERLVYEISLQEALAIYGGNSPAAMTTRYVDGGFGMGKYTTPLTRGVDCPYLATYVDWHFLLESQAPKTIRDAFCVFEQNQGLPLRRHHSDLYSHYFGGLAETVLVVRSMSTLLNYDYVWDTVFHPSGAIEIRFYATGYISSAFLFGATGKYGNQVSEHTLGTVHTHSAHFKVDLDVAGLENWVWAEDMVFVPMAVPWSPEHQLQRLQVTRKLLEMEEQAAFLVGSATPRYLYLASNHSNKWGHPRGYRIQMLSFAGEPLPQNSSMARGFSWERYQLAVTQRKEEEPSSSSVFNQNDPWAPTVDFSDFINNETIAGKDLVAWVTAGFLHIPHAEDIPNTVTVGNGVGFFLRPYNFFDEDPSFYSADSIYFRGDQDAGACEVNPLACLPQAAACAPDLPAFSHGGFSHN
How it was run: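 Recombinant human VAP-1 in 50 mM sodium phosphate pH 7.4 preincubated 30 min at 37 °C with compound (8-point 1:3 series, <1% DMSO), then 1 mM benzylamine, 200 uM Amplex Red, 1 U/mL HRP added. H2O2-derived resorufin fluorescence (ex 544/em 590) followed 1–2 h; IC50 from four-parameter fit of rate inhibition.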

[1] = biological target: T2, recombinant human MAO-A (monoamine oxidase-A) (Homo sapiens, UniProt P21397); experiment: Activity evaluation on recombinant human MAO-A (Amplex Red/HRP-coupled assay, 0.5 mM tyramine substrate); conditions: 0.5 mM tyramine, read-out: Inhibitory Activity (IC50, nM) MAO-A
T2 construct: purchased Sigma-Aldrich
T2 sequence (P21397 1-527): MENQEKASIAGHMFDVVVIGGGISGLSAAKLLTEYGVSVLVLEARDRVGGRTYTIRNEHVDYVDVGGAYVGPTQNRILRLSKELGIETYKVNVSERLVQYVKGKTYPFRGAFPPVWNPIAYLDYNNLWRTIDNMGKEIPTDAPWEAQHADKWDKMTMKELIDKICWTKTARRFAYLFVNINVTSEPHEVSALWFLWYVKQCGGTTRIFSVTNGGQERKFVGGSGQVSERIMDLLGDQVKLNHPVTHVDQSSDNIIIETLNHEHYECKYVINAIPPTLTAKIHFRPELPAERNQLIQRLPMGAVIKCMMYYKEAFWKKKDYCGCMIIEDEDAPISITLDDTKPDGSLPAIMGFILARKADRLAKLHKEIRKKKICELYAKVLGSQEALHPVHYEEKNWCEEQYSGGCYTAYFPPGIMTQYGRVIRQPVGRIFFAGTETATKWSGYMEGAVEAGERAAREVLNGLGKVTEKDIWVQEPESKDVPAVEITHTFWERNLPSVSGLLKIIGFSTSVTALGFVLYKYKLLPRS
How it was run: (§1)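 Compounds preincubated 30 min at 37 °C with enzyme in 50 mM sodium phosphate pH 7.4 (final DMSO <1%, 8-point 1:3 dilutions); reaction started with 200 uM Amplex Red, 1 U/mL HRP and substrate (MAO-A 0.5 mM tyramine, MAO-B 1 mM benzylamine, DAO 1 mM putrescine). Resorufin fluorescence (ex 544/em 590 nm) followed over 1-2 h; IC50 from four-parameter logistic fit.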

[2] = biological target: T3, recombinant human MAO-B (monoamine oxidase-B) (Homo sapiens, UniProt P27338); experiment: Activity evaluation on recombinant human MAO-B (Amplex Red/HRP-coupled assay, 1 mM benzylamine substrate); conditions: 1 mM benzylamine, read-out: Inhibitory Activity (IC50, nM) MAO-B
T3 construct: purchased Sigma-Aldrich
T3 sequence (P27338 1-520): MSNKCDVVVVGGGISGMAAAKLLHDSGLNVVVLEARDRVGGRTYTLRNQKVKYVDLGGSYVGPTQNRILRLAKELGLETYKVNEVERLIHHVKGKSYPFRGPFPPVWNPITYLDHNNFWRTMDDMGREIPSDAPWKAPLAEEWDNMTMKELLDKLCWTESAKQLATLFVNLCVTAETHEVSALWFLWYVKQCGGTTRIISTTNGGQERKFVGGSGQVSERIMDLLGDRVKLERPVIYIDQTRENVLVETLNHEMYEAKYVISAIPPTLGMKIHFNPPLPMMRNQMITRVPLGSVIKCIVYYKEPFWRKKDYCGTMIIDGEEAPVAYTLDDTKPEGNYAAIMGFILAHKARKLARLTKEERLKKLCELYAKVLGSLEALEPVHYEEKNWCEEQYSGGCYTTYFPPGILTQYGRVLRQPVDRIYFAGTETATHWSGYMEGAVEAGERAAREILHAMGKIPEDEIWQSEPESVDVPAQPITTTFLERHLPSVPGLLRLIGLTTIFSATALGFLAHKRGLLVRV
How it was run: as §1

[3] = biological target: T4, recombinant human DAO (diamine oxidase) (Homo sapiens, UniProt P19801); experiment: Activity evaluation on recombinant human DAO (Amplex Red/HRP-coupled assay, 1 mM putrescine substrate); conditions: 1 mM putrescine, read-out: Inhibitory Activity (IC50, nM) DAO
T4 construct: purchased R&D systems
T4 sequence (P19801 20-751): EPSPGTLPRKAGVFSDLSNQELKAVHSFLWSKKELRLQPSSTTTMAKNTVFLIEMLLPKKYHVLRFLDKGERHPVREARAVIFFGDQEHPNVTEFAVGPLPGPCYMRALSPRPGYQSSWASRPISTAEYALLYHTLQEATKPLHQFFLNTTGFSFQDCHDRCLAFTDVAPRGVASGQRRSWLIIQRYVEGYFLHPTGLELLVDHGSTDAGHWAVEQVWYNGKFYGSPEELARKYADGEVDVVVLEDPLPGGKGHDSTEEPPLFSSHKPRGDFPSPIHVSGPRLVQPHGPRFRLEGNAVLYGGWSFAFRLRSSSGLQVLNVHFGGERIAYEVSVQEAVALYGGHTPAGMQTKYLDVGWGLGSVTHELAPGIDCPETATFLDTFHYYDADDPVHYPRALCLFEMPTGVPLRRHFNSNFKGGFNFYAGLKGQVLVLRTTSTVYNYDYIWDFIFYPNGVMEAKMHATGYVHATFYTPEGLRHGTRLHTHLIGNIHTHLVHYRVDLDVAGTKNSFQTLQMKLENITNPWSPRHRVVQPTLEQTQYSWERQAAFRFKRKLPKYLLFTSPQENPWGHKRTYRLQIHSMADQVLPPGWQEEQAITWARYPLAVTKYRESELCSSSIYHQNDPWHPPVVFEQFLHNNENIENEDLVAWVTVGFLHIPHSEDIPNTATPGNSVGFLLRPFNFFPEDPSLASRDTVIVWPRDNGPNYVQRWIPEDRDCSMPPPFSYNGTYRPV
How it was run: as §1

Row | SMILES | IC50 (recombinant human VAP-1) | IC50 [1] | IC50 [2] | IC50 [3]
1 | NCC(Cn1ncn(-c2cccc(-c3ccc(C(F)(F)F)nc3)n2)c1=O)=C(F)F [Example 48, 2-[2-(aminomethyl)-3,3-difluoro-allyl]-4-[6-[6-(trifluoromethyl)-3-pyridyl]-2-pyridyl]-1,2,4-triazol-3-one Trifluoroacetate] | 1 nM | > 100000 nM | 31000 nM | 61 nM
2 | CN(C)c1ccc(-c2cccc(-n3cnn(CC(CN)=C(F)F)c3=O)n2)cn1 [Example 49, 2-[2-(aminomethyl)-3,3-difluoro-allyl]-4-[6-[6-(dimethylamino)-3-pyridyl]-2-pyridyl]-1,2,4-triazol-3-one Trifluoroacetate] | 1.6 nM | > 100000 nM | > 100000 nM | 490 nM
3 | NCC(Cn1ncn(-c2cccc(-c3ccc4c(c3)OCO4)n2)c1=O)=C(F)F [Example 50, 2-[2-(aminomethyl)-3,3-difluoro-allyl]-4-[6-(1,3-benzodioxol-5-yl)-2-pyridyl]-1,2,4-triazol-3-one Trifluoroacetate] | 1.5 nM | > 100000 nM | 13000 nM | 1200 nM
4 | CCn1cc(-c2cccc(-n3cnn(CC(CN)=C(F)F)c3=O)n2)cn1 [Example 53, 2-[2-(aminomethyl)-3,3-difluoro-allyl]-4-[6-(1-ethylpyrazol-4-yl)-2-pyridyl]-1,2,4-triazol-3-one Trifluoroacetate] | 1.3 nM | > 100000 nM | > 100000 nM | 1710 nM
5 | CS(=O)(=O)c1ccc(-c2ccnc(-n3cnn(CC(CN)=C(F)F)c3=O)c2)cc1 [Example 54, 2-[2-(aminomethyl)-3,3-difluoro-allyl]-4-[4-(4-methylsulfonylphenyl)-2-pyridyl]-1,2,4-triazol-3-one Trifluoroacetate] | 4.9 nM | > 100000 nM | > 100000 nM | 480 nM
6 | NCC(Cn1ncn(-c2cc(-c3ccc(N4CCNCC4)cc3)ccn2)c1=O)=C(F)F [Example 55, 2-[2-(aminomethyl)-3,3-difluoro-allyl]-4-[4-(4-piperazin-1-ylphenyl)-2-pyridyl]-1,2,4-triazol-3-one Ditrifluoroacetate] | 6.6 nM | > 100000 nM | > 100000 nM | 620 nM
7 | NCC(Cn1ncn(-c2cc(-c3ccc(C(F)(F)F)nc3)ccn2)c1=O)=C(F)F [Example 56, 2-[2-(aminomethyl)-3,3-difluoro-allyl]-4-[4-[6-(trifluoromethyl)-3-pyridyl]-2-pyridyl]-1,2,4-triazol-3-one Trifluoroacetate] | 1.6 nM | > 100000 nM | 79600 nM | 75 nM
8 | NCC(Cn1ncn(-c2cc(-c3ccc4c(c3)OCO4)ccn2)c1=O)=C(F)F [Example 58, 2-[2-(aminomethyl)-3,3-difluoro-allyl]-4-[4-(1,3-benzodioxol-5-yl)-2-pyridyl]-1,2,4-triazol-3-one Trifluoroacetate] | 2.2 nM | > 100000 nM | > 100000 nM | 1700 nM
9 | CCn1cc(-c2ccnc(-n3cnn(CC(CN)=C(F)F)c3=O)c2)cn1 [Example 60, 2-[2-(aminomethyl)-3,3-difluoro-allyl]-4-[4-(1-ethylpyrazol-4-yl)-2-pyridyl]-1,2,4-triazol-3-one Trifluoroacetate] | 1.3 nM | > 100000 nM | > 100000 nM | 810 nM

Now those with a lower IC50 (recombinant human VAP-1), led by results:

Row | IC50 (recombinant human VAP-1) | IC50 [1] | IC50 [2] | IC50 [3] | SMILES
10 | 0.6 nM | > 100000 nM | 28000 nM | 520 nM | Cc1cc(-c2cccc(-n3cnn(CC(CN)=C(F)F)c3=O)n2)cc2c1NC(=O)CC2 [Example 51, 6-[6-[1-[2-(aminomethyl)-3,3-difluoro-allyl]-5-oxo-1,2,4-triazol-4-yl]-2-pyridyl]-8-methyl-3,4-dihydro-1H-quinolin-2-one Trifluoroacetate]
11 | 0.9 nM | > 100000 nM | 23000 nM | 300 nM | CN1C(=O)CCc2cc(-c3cccc(-n4cnn(CC(CN)=C(F)F)c4=O)n3)ccc21 [Example 52, 6-[6-[1-[2-(aminomethyl)-3,3-difluoro-allyl]-5-oxo-1,2,4-triazol-4-yl]-2-pyridyl]-1-methyl-3,4-dihydroquinolin-2-one Trifluoroacetate]
12 | 0.9 nM | > 100000 nM | 56400 nM | 30 nM | CN(C)c1ccc(-c2ccnc(-n3cnn(CC(CN)=C(F)F)c3=O)c2)cn1 [Example 57, 2-[2-(aminomethyl)-3,3-difluoro-allyl]-4-[4-[6-(dimethylamino)-3-pyridyl]-2-pyridyl]-1,2,4-triazol-3-one Trifluoroacetate]
13 | 0.5 nM | > 100000 nM | > 100000 nM | 84 nM | Cc1cc(-c2ccnc(-n3cnn(CC(CN)=C(F)F)c3=O)c2)cc2c1NC(=O)CC2 [Example 59, 6-[2-[1-[2-(aminomethyl)-3,3-difluoro-allyl]-5-oxo-1,2,4-triazol-4-yl]-4-pyridyl]-8-methyl-3,4-dihydro-1H-quinolin-2-one Trifluoroacetate]
14 | 0.7 nM | > 100000 nM | 14000 nM | 19 nM | CS(=O)(=O)c1ccc(-c2cc(-n3cnn(CC(CN)=C(F)F)c3=O)ccn2)cc1 [Example 61, 2-[2-(aminomethyl)-3,3-difluoro-allyl]-4-[2-(4-methylsulfonylphenyl)-4-pyridyl]-1,2,4-triazol-3-one Trifluoroacetate]
